Legend:
[1] = Cytotoxicity against OT-2 T cell receptor transgenic mouse splenocytes using propidium iodide by flow cytometry; assay type: cell-based; settings: splenocyte
[2] = Effect on IL-2 secretion in OVA323-339 peptide-stimulated OT-2 T cell receptor transgenic mouse T cells after 3 days by sandwich ELISA; assay type: cell-based; settings: splenocyte, 72 h
[3] = Immunosupressive activity in OVA323-339 peptide-stimulated OT-2 T cell receptor transgenic mouse splenocytes assessed as inhibition of T cell proliferation after 3 days by MTT assay; assay type: functional, cell-based; settings: Splenocyte, 72 h
[4] = Effect on IFN-gamma secretion in OVA323-339 peptide-stimulated OT-2 T cell receptor transgenic mouse T cells after 3 days by sandwich ELISA; assay type: cell-based; settings: splenocyte, 72 h

Row | SMILES | Activity [1] | Activity [2] | IC50 [3] [nM] | Activity [4]
1 | CC(C)CC(=O)O[C@@H]1CC[C@]2(C)[C@H]3CC[C@]45C[C@]4(CC[C@H]5[C@@H]4C[C@H]([C@@H]5O[C@]5(C)CO)OC4O)[C@]3(C)[C@H](O)C[C@H]2C1(C)C (stereo partly specified) | Non-toxic | Non-toxic | 1500 | Non-toxic
2 | CC(C)CC(=O)O[C@@H]1CC[C@]2(C)[C@H]3CC[C@]45C[C@]4(CC[C@H]5[C@@H]4C[C@H]([C@H](O)C(C)(C)O)OC4O)[C@]3(C)[C@H](O)C[C@H]2C1(C)C (stereo partly specified) | Non-toxic | Non-toxic | > 20000 | Non-toxic
3 | CCCCCCCCCC(=O)O[C@@H]1CC[C@]2(C)[C@H]3CC[C@]45C[C@]4(CC[C@H]5[C@@H]4C[C@H]([C@@H]5O[C@]5(C)CO)OC4O)[C@]3(C)[C@H](O)C[C@H]2C1(C)C (stereo partly specified) | Non-toxic | Non-toxic | 1800 | Non-toxic
4 | CCC(C)CCCCCCC(=O)O[C@@H]1CC[C@]2(C)[C@H]3CC[C@]45C[C@]4(CC[C@H]5[C@@H]4C[C@H]([C@@H]5O[C@]5(C)CO)OC4O)[C@]3(C)[C@H](O)C[C@H]2C1(C)C (stereo partly specified) | Non-toxic | Non-toxic | 1500 | Non-toxic

Source: ChEMBL document CHEMBL3352480, “Antiproliferative glabretal-type triterpenoids from the root bark of Dictamnus dasycarpus” (Bioorg Med Chem Lett, 2015)
